Assays:
human 5-HT2A receptors = human 5-HT2A receptors (Homo sapiens, UniProt P28223); test: 5-HT2A Gq-mediated calcium flux functional assay (human); type: cell-based
Method: (§1) Serotonin and Opioid Receptor Functional Assays. Functional assay screens at 5-HT and opioid receptors were performed in parallel using the same compound dilutions and 384-well format high-throughput assay platforms. Assays assessed activity at all human isoforms of the receptors, except where noted for the mouse 5-HT2A receptor. Receptor constructs in pcDNA vectors were generated from the Presto-Tango GPCR library with minor modifications. All compounds were serially diluted in drug buffer (HBSS, 20 mM HEPES, pH 7.4 supplemented with 0.1% bovine serum albumin and 0.01% ascorbic acid) and dispensed into 384-well assay plates using a FLIPR^TETRA (Molecular Devices). Every plate included a positive control such as 5-HT (for all 5-HT receptors), DADLE (DOR), salvinorin A (KOR), and DAMGO (MOR). For measurements of 5-HT2A, 5-HT2B, and 5-HT2C Gq-mediated calcium flux function, HEK Flp-In 293 T-Rex stable cell lines (Invitrogen) were loaded with Fluo-4 dye for one hour, stimulated with compounds and read for baseline (0-10 seconds) and peak fold-over-basal fluorescence (5 minutes) at 25° C. on the FLIPR^TETRA. For measurement of 5-HT6 and 5-HT7a functional assays, Gs-mediated cAMP accumulation was detected using the split-luciferase GloSensor assay in HEKT cells measuring luminescence on a Microbeta Trilux (Perkin Elmer) with a 15 min drug incubation at 25° C. […]

[1] = tested on: opioid receptors (MOR, KOR, DOR); test: Opioid receptor functional assays (Gi/o-mediated cAMP inhibition); type: cell-based, human
Method: as §1

physchem = settings: saline or isotonic

Sequence of human 5-HT2A receptors (P28223 whole entry, canonical isoform): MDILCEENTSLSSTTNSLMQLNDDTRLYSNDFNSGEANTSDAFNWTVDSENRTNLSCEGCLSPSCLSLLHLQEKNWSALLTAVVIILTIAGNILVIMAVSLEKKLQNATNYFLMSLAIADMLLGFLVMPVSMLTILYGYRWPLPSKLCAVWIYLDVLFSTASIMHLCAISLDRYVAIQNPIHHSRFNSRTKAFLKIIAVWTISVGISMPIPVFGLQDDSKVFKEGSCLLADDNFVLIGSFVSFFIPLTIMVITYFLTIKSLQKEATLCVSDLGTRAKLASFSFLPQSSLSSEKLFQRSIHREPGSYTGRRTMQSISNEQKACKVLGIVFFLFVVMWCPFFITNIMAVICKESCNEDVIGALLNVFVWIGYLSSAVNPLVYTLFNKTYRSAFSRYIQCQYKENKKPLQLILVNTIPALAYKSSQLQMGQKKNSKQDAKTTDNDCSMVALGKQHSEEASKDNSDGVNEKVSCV

With `COc1ccc2c3c([nH]c2c1)CCN(C)CC3` [TBG] the “agonist activity at human 5-HT2A receptors” value (human 5-HT2A receptors) was “potent agonist activity”, the opioid agonist activity [1] was “weak or no opioid agonist activity” and the solubility (physchem) was ≥ 40 mg/mL.
